The test system of data set [1] is Staphylococcus aureus. The data set can be described thus: Antibacterial activity against Staphylococcus aureus ATCC 43300. Format: functional.
Data set [2] has as its system Staphylococcus aureus. Description: Antibacterial activity against Staphylococcus aureus ATCC 31007. Type of data set: functional.
Data set [3] concerns Staphylococcus aureus. The data set can be described thus: Antibacterial activity against Staphylococcus aureus ATCC 25923. Format: functional.
In another data set the test system is Escherichia coli. Description: Antibacterial activity against Escherichia coli ATCC 25922. Format: functional.
The subject of another data set is Pseudomonas aeruginosa. Description: Antibacterial activity against Pseudomonas aeruginosa ATCC 27853. Type of data set: functional.
A further data set relates to Bacillus subtilis. The data set can be described thus: Antibacterial activity against Bacillus subtilis ATCC 9372. Type of data set: functional.
Data set [4] can be described thus: Hemolytic activity in sheep RBC. Type of data set: toxicity, cell-based, Ovis aries, Erythrocyte. The settings on record: sheep red blood cells (erythrocytes).
Data set [5] in a line: Selectivity index, ratio of HC50 for hemolytic activity in sheep RBC to MIC for antibacterial activity against Staphylococcus aureus ATCC 43300. Type of data set: toxicity. The settings on record: sheep red blood cells (erythrocytes).

Drawing on ChEMBL document CHEMBL5113489, “Design, synthesis, and biological evaluation of membrane-active honokiol derivatives as potent antibacterial agents” (Eur J Med Chem, 2022), this text covers MIC, HC50 and selectivity ratio for 18 compounds.

Broadly, the MIC is the lowest concentration found to suppress growth. A lower MIC goes with greater potency. As a reminder, the HC50 is the concentration that lyses half of the red blood cells.

Converted amounts (≈) assume the structure as drawn. Bounds are passed on as bounds.

On to `C=CCc1ccc(OCCC[N+](C)(C)CCCCCCCCCCCCCC)c(-c2ccc(OCCC[N+](C)(C)CCCCCCCCCCCCCC)c(CC=C)c2)c1.[Br-].[Br-]`, for which the MIC with Staphylococcus aureus [1] was above 128 µg/mL; with Staphylococcus aureus [2], 128 µg/mL; against Staphylococcus aureus [3], 16 µg/mL; with Escherichia coli, above 128 µg/mL; with Pseudomonas aeruginosa, above 128 µg/mL; with Bacillus subtilis, above 128 µg/mL.
Take `C=CCc1ccc(O)c(-c2ccc(O)c(CC=C)c2)c1` [HONOKIOL]: the MIC was 128 µg/mL (≈ 481 µM) against Staphylococcus aureus [1]; 64 µg/mL (≈ 240 µM) against Staphylococcus aureus [2]; 64 µg/mL (≈ 240 µM) with Staphylococcus aureus [3]; above 128 µg/mL in the data set on Escherichia coli; above 128 µg/mL against Pseudomonas aeruginosa; 32 µg/mL (≈ 120 µM) in the data set with Bacillus subtilis.
As to `C=CCc1ccc(OCC(=O)NCCC[N+](C)(C)CCCC)c(-c2ccc(OCC(=O)NCCC[N+](C)(C)CCCC)c(CC=C)c2)c1.[Br-].[Br-]`, the MIC was 128 µg/mL in the data set on Staphylococcus aureus [1]; 128 µg/mL against Staphylococcus aureus [2]; 64 µg/mL with Staphylococcus aureus [3]; 128 µg/mL with Escherichia coli; above 128 µg/mL against Pseudomonas aeruginosa; above 128 µg/mL in the data set with Bacillus subtilis.
As to `C=CCc1ccc(OCC(=O)NC(CCCCN)C(=O)NCCCCCCCCCCCC)c(-c2ccc(OCC(=O)NC(CCCCN)C(=O)NCCCCCCCCCCCC)c(CC=C)c2)c1.O=C(O)C(F)(F)F.O=C(O)C(F)(F)F` (configuration not stated), the MIC against Staphylococcus aureus [1] is 64 µg/mL; in the data set with Staphylococcus aureus [2], 64 µg/mL; with Staphylococcus aureus [3], 128 µg/mL; against Escherichia coli, above 128 µg/mL; with Pseudomonas aeruginosa, above 128 µg/mL; in the data set on Bacillus subtilis, above 128 µg/mL.
Turning to `C=CCc1ccc(OCC(=O)NCCCN)c(-c2ccc(OCC(=O)NCCCN)c(CC=C)c2)c1.O=C(O)C(F)(F)F.O=C(O)C(F)(F)F`, the MIC in the data set on Staphylococcus aureus [1] was 64 µg/mL; against Staphylococcus aureus [2] it was 64 µg/mL; in the data set on Staphylococcus aureus [3] it was 32 µg/mL; in the data set with Escherichia coli, 128 µg/mL; against Pseudomonas aeruginosa it was 64 µg/mL; against Bacillus subtilis, above 128 µg/mL.
For the compound `C=CCc1ccc(OCC(=O)NCCC[N+](C)(C)CCCCCC)c(-c2ccc(OCC(=O)NCCC[N+](C)(C)CCCCCC)c(CC=C)c2)c1.[Br-].[Br-]`, the MIC against Staphylococcus aureus [1] was 16 µg/mL; in the data set on Staphylococcus aureus [2], 16 µg/mL; against Staphylococcus aureus [3] it was 8 µg/mL; in the data set with Escherichia coli it was 16 µg/mL; in the data set with Pseudomonas aeruginosa, 128 µg/mL; against Bacillus subtilis it was 16 µg/mL. The HC50 in data set [4] was 183 µg/mL. Moreover, in data set [5], the selectivity ratio was determined as 11.4.
For the compound `C=CCc1ccc(OCC(=O)NCCC[N+](C)(C)C)c(-c2ccc(OCC(=O)NCCC[N+](C)(C)C)c(CC=C)c2)c1.[I-].[I-]`, the MIC was above 128 µg/mL with Staphylococcus aureus [1]; 128 µg/mL with Staphylococcus aureus [2]; 64 µg/mL against Staphylococcus aureus [3]; 16 µg/mL with Escherichia coli; above 128 µg/mL in the data set with Pseudomonas aeruginosa; above 128 µg/mL against Bacillus subtilis.
Regarding `CN[C@H](CC(C)C)C(=O)N[C@H]1C(=O)N[C@@H](CC(N)=O)C(=O)N[C@H]2C(=O)N[C@H]3C(=O)N[C@H](C(=O)N[C@H](C(=O)O)c4cc(O)cc(O)c4-c4cc3ccc4O)[C@H](O)c3ccc(c(Cl)c3)Oc3cc2cc(c3O[C@@H]2O[C@H](CO)[C@@H](O)[C@H](O)[C@H]2O[C@H]2C[C@](C)(N)[C@H](O)[C@H](C)O2)Oc2ccc(cc2Cl)[C@H]1O` [VANCOMYCIN], the MIC against Escherichia coli was above 128 µg/mL; against Pseudomonas aeruginosa it was above 128 µg/mL; with Bacillus subtilis, 0.5 µg/mL (≈ 0.345 µM).
Consider `C=CCc1ccc(OCC(=O)NC(CCCCN)C(=O)NCCCC)c(-c2ccc(OCC(=O)NC(CCCCN)C(=O)NCCCC)c(CC=C)c2)c1.O=C(O)C(F)(F)F.O=C(O)C(F)(F)F` (configuration not stated), for which the MIC against Staphylococcus aureus [1] was found to be 16 µg/mL; with Staphylococcus aureus [2], 32 µg/mL; in the data set with Staphylococcus aureus [3] it was 16 µg/mL; with Escherichia coli, 32 µg/mL; against Pseudomonas aeruginosa, 32 µg/mL; with Bacillus subtilis it was 8 µg/mL.
For the compound `C=CCc1ccc(OCCC[N+](C)(C)CCCCCCCCCC)c(-c2ccc(OCCC[N+](C)(C)CCCCCCCCCC)c(CC=C)c2)c1.[Br-].[Br-]`, the MIC with Staphylococcus aureus [1] is 4 µg/mL; in the data set with Staphylococcus aureus [2] it was 32 µg/mL; against Staphylococcus aureus [3], 16 µg/mL; in the data set with Escherichia coli, above 128 µg/mL; with Pseudomonas aeruginosa it was above 128 µg/mL; with Bacillus subtilis, 2 µg/mL.
On to `C=CCc1ccc(OCC(=O)NC(CCCCN)C(=O)NCCCCCCCC)c(-c2ccc(OCC(=O)NC(CCCCN)C(=O)NCCCCCCCC)c(CC=C)c2)c1.O=C(O)C(F)(F)F.O=C(O)C(F)(F)F` (configuration not stated), for which the MIC is 8 µg/mL in the data set with Staphylococcus aureus [1]; 16 µg/mL in the data set on Staphylococcus aureus [2]; 16 µg/mL with Staphylococcus aureus [3]; 64 µg/mL in the data set with Escherichia coli; 128 µg/mL in the data set with Pseudomonas aeruginosa; 8 µg/mL in the data set with Bacillus subtilis.
Consider `C=CCc1ccc(OCC(=O)NCCCN(C)C)c(-c2ccc(OCC(=O)NCCCN(C)C)c(CC=C)c2)c1`, for which the MIC against Staphylococcus aureus [1] was above 128 µg/mL; in the data set with Staphylococcus aureus [2] it was 128 µg/mL (≈ 232 µM); against Staphylococcus aureus [3], 128 µg/mL (≈ 232 µM); in the data set on Escherichia coli it was above 128 µg/mL; against Pseudomonas aeruginosa it was above 128 µg/mL; against Bacillus subtilis, above 128 µg/mL.
With `C=CCc1ccc(OCC(=O)NCCC[N+](C)(C)CCCCCCCCCCCC)c(-c2ccc(OCC(=O)NCCC[N+](C)(C)CCCCCCCCCCCC)c(CC=C)c2)c1.[Br-].[Br-]`, the MIC was determined as 4 µg/mL against Staphylococcus aureus [1]; 8 µg/mL against Staphylococcus aureus [2]; 8 µg/mL in the data set with Staphylococcus aureus [3]; 32 µg/mL with Escherichia coli; 128 µg/mL with Pseudomonas aeruginosa; 32 µg/mL with Bacillus subtilis.
On to `C=CCc1ccc(OCC(=O)NC(CCCCN)C(=O)NCc2ccc(C(C)(C)C)cc2)c(-c2ccc(OCC(=O)NC(CCCCN)C(=O)NCc3ccc(C(C)(C)C)cc3)c(CC=C)c2)c1.O=C(O)C(F)(F)F.O=C(O)C(F)(F)F` (configuration not stated), for which the MIC in the data set on Staphylococcus aureus [1] is 4 µg/mL; in the data set on Staphylococcus aureus [2] it was 16 µg/mL; in the data set with Staphylococcus aureus [3], 8 µg/mL; against Escherichia coli, 128 µg/mL; against Pseudomonas aeruginosa, above 128 µg/mL; in the data set with Bacillus subtilis, 4 µg/mL.
`C=CCc1ccc(OCCC[N+](C)(C)CCCCCCCCCCCC)c(-c2ccc(OCCC[N+](C)(C)CCCCCCCCCCCC)c(CC=C)c2)c1.[Br-].[Br-]`: the minimum inhibitory concentration (MIC) against Staphylococcus aureus [1] is above 128 µg/mL; in the data set with Staphylococcus aureus [2], 128 µg/mL; against Staphylococcus aureus [3] it was 128 µg/mL; with Escherichia coli, above 128 µg/mL; in the data set on Pseudomonas aeruginosa, above 128 µg/mL; with Bacillus subtilis it was above 128 µg/mL.
On to `C=CCc1ccc(OCC(=O)NCCN)c(-c2ccc(OCC(=O)NCCN)c(CC=C)c2)c1.O=C(O)C(F)(F)F.O=C(O)C(F)(F)F`, for which the MIC against Staphylococcus aureus [1] worked out at 32 µg/mL; with Staphylococcus aureus [2], 32 µg/mL; in the data set on Staphylococcus aureus [3], 32 µg/mL; against Escherichia coli, 64 µg/mL; in the data set with Pseudomonas aeruginosa, 128 µg/mL; in the data set with Bacillus subtilis, 128 µg/mL.
With `C=CCc1ccc(OCC(=O)NCCCCN)c(-c2ccc(OCC(=O)NCCCCN)c(CC=C)c2)c1.O=C(O)C(F)(F)F.O=C(O)C(F)(F)F`, the MIC was found to be 32 µg/mL with Staphylococcus aureus [1]; 64 µg/mL in the data set on Staphylococcus aureus [2]; 32 µg/mL against Staphylococcus aureus [3]; 128 µg/mL in the data set with Escherichia coli; 64 µg/mL against Pseudomonas aeruginosa; 128 µg/mL in the data set on Bacillus subtilis.
For `C=CCc1ccc(OCC(=O)NC(CCCCN)C(=O)NCc2ccc(-c3ccccc3)cc2)c(-c2ccc(OCC(=O)NC(CCCCN)C(=O)NCc3ccc(-c4ccccc4)cc3)c(CC=C)c2)c1.O=C(O)C(F)(F)F.O=C(O)C(F)(F)F` (configuration not stated), the MIC in the data set on Staphylococcus aureus [1] is 16 µg/mL; against Staphylococcus aureus [2], 32 µg/mL; in the data set with Staphylococcus aureus [3], 32 µg/mL; against Escherichia coli, above 128 µg/mL; with Pseudomonas aeruginosa it was above 128 µg/mL; against Bacillus subtilis, 8 µg/mL.
